In this assay the target is human Janus kinase 1 (JAK1), recombinant catalytic domain (Homo sapiens (Human), UniProt P23458). The experiment in a line: LanthaScreen TR-FRET enzymatic assay, JAK1. It is filed as biochemical. To be noted: 1 mM ATP, GFP-STAT1 substrate, read-out: Inhibitory Activity IC50 JAK1. In outline:
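Insect-cell-expressed catalytic domains (JAK1 aa 866-1154, 440 ng/mL; JAK2 aa 808-1132, 11 ng/mL; JAK3 aa 781-1124, 400 ng/mL; TYK2 aa 833-1187, 200 ng/mL) preincubated 15 min with compound, then reacted 1 h at room temperature with 100 nM GFP-STAT1 and 1 mM ATP. pTyr701 detected by TR-FRET (terbium antibody); IC50 from 10-dose sigmoid fits.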

Sequence of human Janus kinase 1 (JAK1), recombinant catalytic domain (P23458 866-1154): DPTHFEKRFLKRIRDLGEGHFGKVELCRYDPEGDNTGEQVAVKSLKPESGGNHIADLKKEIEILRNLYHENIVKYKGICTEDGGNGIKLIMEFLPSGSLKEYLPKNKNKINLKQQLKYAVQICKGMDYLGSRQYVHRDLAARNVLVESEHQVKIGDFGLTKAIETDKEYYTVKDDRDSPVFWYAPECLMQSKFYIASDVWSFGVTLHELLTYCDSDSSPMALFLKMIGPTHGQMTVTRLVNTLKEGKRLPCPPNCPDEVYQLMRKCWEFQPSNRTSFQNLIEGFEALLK

As usually defined, the IC50 is the concentration needed to halve the response being measured. Consider `O=C(Nc1cn2c(-c3ccc(CN4CCS(=O)(=O)CC4)cc3F)cccc2n1)C1CC1` [Compound 14], for which the IC50 is no more than 0.5 µM.

Values taken from patent US10730875B2, “Substituted imidazo[1,2-A]pyridin-2-ylamine compounds, and pharmaceutical compositions and methods of use thereof” (JN Therapeutics, priority 2015, dated 2020).
